The subject of one series is C6. Kind of series: Neuroprotective activity in rat C6 cells assessed as NGF secretion at 20 uM incubated for 24 hrs by ELISA relative to control. The series is classed as functional.
Series [1] can be described thus: Cytotoxicity against rat C6 cells assessed as cell viability at 20 uM incubated for 24 hrs by MTT assay relative to control. The conditions noted are these: read-out: Activity. The class given is cell-based.
For another series, the system named is BV-2. Description: Antineuroinflammatory activity against mouse BV2 cells assessed as inhibition in LPS-induced NO production preincubated for 30 mins followed b LPS addition and measured after 24 hr by griess reagent based assay. The class given is functional, cell-based.

The record followed here is ChEMBL document CHEMBL4414621, “Thiohydantoin and Hydantoin Derivatives from the Roots of Armoracia rusticana and Their Neurotrophic and Anti-neuroinflammatory Activities” (J Nat Prod, 2019).

Molecules are shown by their SMILES.

`O=C1[C@@H]2CCCN2C(=O)N1CCc1ccccc1`: the Activity with C6 was 111.26%. Also, in series [1], the viability at 24 h, 20 µM amounted to 111%.
`O=C1N(CCc2ccccc2)C(=S)N2CCC[C@]12O`: the Activity in the series with C6 was 100.68%. In addition, in series [1], the viability at 24 h, 20 µM was determined as 108%.
With `CNC(=N)NCCC[C@H](N)C(=O)O` [TILARGININE], the IC50 with BV-2 stood at 21.9 µM.
Consider `O=C1N(CCc2ccccc2)C(=S)N2CCC[C@@]12O`, for which the Activity in the series on C6 is listed as 75.08%. The viability at 24 h, 20 µM in series [1] is 112%.
Take `CCCCC/C=C/C(=O)CCc1ccc(O)c(OC)c1` [SHOGAOL]: the Activity in the series on C6 was determined as 140.69%. In addition, the viability at 24 h, 20 µM in series [1] turned out to be 111%.
For `CSC1=NC[C@]2(S1)C(=O)Nc1ccccc12`, the Activity in the series on C6 worked out at 96.3%. The viability at 24 h, 20 µM in series [1] turned out to be 88.2%.
Regarding `C=CCN1C(=O)N2CCC[C@]2(O)C1=O`, in the series with C6, the Activity is given as 141.99%. In addition, the viability at 24 h, 20 µM in series [1] was 100%.
As for `C=CCN1C(=O)[C@@]2(O)CCCN2C1=S`, in the series with C6, the Activity came out at 153.59%. The viability at 24 h, 20 µM in series [1] is 114%.
In the same order, the values of `C=CCN1C(=O)[C@]2(O)CCCN2C1=S` are 93.41% and 106%.
On to `O=C1C2CCCN2C(=S)N1Cc1ccccc1` (stereo not drawn), for which, in the series on C6, the Activity came out at 105.88%. In addition, in series [1], the viability at 24 h, 20 µM was determined as 109%.
As for `O=C1N(CCc2ccccc2)C(=O)[C@@]2(O)CCCN12`, the Activity with C6 is reported as 115.13%. Besides, the viability at 24 h, 20 µM in series [1] was 106%.
Take `NC(=O)NCCc1ccccc1`: the Activity with C6 was 105.82%. Moreover, in the series with BV-2, the IC50 is 32.6 µM. For the same compound, the viability at 24 h, 20 µM in series [1] worked out at 107%.
As for `C=CCN1C(=O)N2CCC[C@@]2(O)C1=O`, the Activity in the series on C6 is given as 110.66%. In addition, in series [1], the viability at 24 h, 20 µM was determined as 97.3%.
For `O=C1N(CCc2ccccc2)C(=O)[C@]2(O)CCCN12` the same measures were 98.7% and 91.2%.
